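Cultured in 96-well plates, cells were exposed to test compound for 48 hours across five concentrations. At the GI50, growth is halved. At the TGI there is no net growth.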
Legend:
Test in all cases: NCI tumour cell line growth inhibition, 48 h
HS 578T breast = test system: HS 578T breast
SK-MEL-2 melanoma = test system: SK-MEL-2 melanoma
EKVX NSCLC = test system: EKVX NSCLC
COLO 205 colon = test system: COLO 205 colon
SW-620 colon = test system: SW-620 colon
LOX IMVI melanoma = test system: LOX IMVI melanoma
SK-MEL-5 melanoma = test system: SK-MEL-5 melanoma
NCI-H226 lung = test system: NCI-H226 lung
A549 NSCLC = test system: A549 NSCLC
ACHN renal = test system: ACHN renal
SN12C renal = test system: SN12C renal
CCRF-CEM leukemia = test system: CCRF-CEM leukemia
KM12 colon = test system: KM12 colon
MOLT-4 leukemia = test system: MOLT-4 leukemia
MALME-3M melanoma = test system: MALME-3M melanoma
UO-31 renal = test system: UO-31 renal
K-562 leukemia = test system: K-562 leukemia
IGROV1 ovarian = test system: IGROV1 ovarian
NCI-H522 lung = test system: NCI-H522 lung
MDA-MB-231 breast = test system: MDA-MB-231 breast
OVCAR-4 ovarian = test system: OVCAR-4 ovarian
A498 renal = test system: A498 renal
TK-10 renal = test system: TK-10 renal
SR leukemia = test system: SR leukemia
HOP-92 NSCLC = test system: HOP-92 NSCLC
SNB-19 CNS = test system: SNB-19 CNS
UACC-62 melanoma = test system: UACC-62 melanoma
PC-3 prostate = test system: PC-3 prostate
SF-295 CNS = test system: SF-295 CNS
MCF7 breast = test system: MCF7 breast
HT29 colon = test system: HT29 colon
HL-60(TB) leukemia = test system: HL-60(TB) leukemia
RPMI-8226 leukemia = test system: RPMI-8226 leukemia
SK-MEL-28 melanoma = test system: SK-MEL-28 melanoma
HCC-2998 colon = test system: HCC-2998 colon
SNB-75 CNS = test system: SNB-75 CNS
SF-268 CNS = test system: SF-268 CNS
OVCAR-8 ovarian = test system: OVCAR-8 ovarian
OVCAR-3 ovarian = test system: OVCAR-3 ovarian
HOP-62 NSCLC = test system: HOP-62 NSCLC
SK-OV-3 ovarian = test system: SK-OV-3 ovarian
MDA-MB-435 = test system: MDA-MB-435
NCI-H460 lung = test system: NCI-H460 lung
U251 CNS = test system: U251 CNS
HCT-15 colon = test system: HCT-15 colon
NCI/ADR-RES ovarian = test system: NCI/ADR-RES ovarian
NCI-H23 lung = test system: NCI-H23 lung
RXF 393 renal = test system: RXF 393 renal
SF-539 CNS = test system: SF-539 CNS
T-47D breast = test system: T-47D breast
UACC-257 melanoma = test system: UACC-257 melanoma
OVCAR-5 ovarian = test system: OVCAR-5 ovarian

Structure (SMILES): CC1=CC(=O)CC(C)(C)[C@@]1(O)/C=C/C(C)=C\C(=O)O
- GI50 (HS 578T breast): 209 nM
- TGI (HS 578T breast): 1570 nM
- GI50 (SK-MEL-2 melanoma): 923 nM
- TGI (SK-MEL-2 melanoma): 2310 nM
- GI50 (EKVX NSCLC): 250 nM
- TGI (EKVX NSCLC): 2290 nM
- GI50 (COLO 205 colon): 204 nM
- TGI (COLO 205 colon): 950 nM
- GI50 (SW-620 colon): 285 nM
- TGI (SW-620 colon): 2200 nM
- GI50 (LOX IMVI melanoma): 129 nM
- TGI (LOX IMVI melanoma): 432 nM
- GI50 (SK-MEL-5 melanoma): 111 nM
- TGI (SK-MEL-5 melanoma): 252 nM
- GI50 (NCI-H226 lung): 148 nM
- TGI (NCI-H226 lung): 499 nM
- GI50 (A549 NSCLC): 408 nM
- TGI (A549 NSCLC): 3500 nM
- GI50 (ACHN renal): 489 nM
- TGI (ACHN renal): 2380 nM
- GI50 (SN12C renal): 894 nM
- TGI (SN12C renal): 3900 nM
- GI50 (CCRF-CEM leukemia): 196 nM
- TGI (CCRF-CEM leukemia): > 50000 nM
- GI50 (KM12 colon): 210 nM
- TGI (KM12 colon): 1560 nM
- GI50 (MOLT-4 leukemia): 152 nM
- TGI (MOLT-4 leukemia): > 50000 nM
- GI50 (MALME-3M melanoma): 104 nM
- TGI (MALME-3M melanoma): 329 nM
- GI50 (UO-31 renal): 608 nM
- TGI (UO-31 renal): 2300 nM
- GI50 (K-562 leukemia): 164 nM
- TGI (K-562 leukemia): > 50000 nM
- GI50 (IGROV1 ovarian): 157 nM
- TGI (IGROV1 ovarian): 946 nM
- GI50 (NCI-H522 lung): 115 nM
- TGI (NCI-H522 lung): 359 nM
- GI50 (MDA-MB-231 breast): 1140 nM
- TGI (MDA-MB-231 breast): 3550 nM
- GI50 (OVCAR-4 ovarian): 131 nM
- TGI (OVCAR-4 ovarian): 464 nM
- GI50 (A498 renal): 115 nM
- TGI (A498 renal): 374 nM
- GI50 (TK-10 renal): 471 nM
- TGI (TK-10 renal): 2740 nM
- GI50 (SR leukemia): 155 nM
- TGI (SR leukemia): > 50000 nM
- GI50 (HOP-92 NSCLC): 566 nM
- TGI (HOP-92 NSCLC): 2980 nM
- GI50 (SNB-19 CNS): 254 nM
- TGI (SNB-19 CNS): 2280 nM
- GI50 (UACC-62 melanoma): 545 nM
- TGI (UACC-62 melanoma): 1370 nM
- GI50 (PC-3 prostate): 347 nM
- TGI (PC-3 prostate): 3460 nM
- GI50 (SF-295 CNS): 749 nM
- TGI (SF-295 CNS): 2320 nM
- GI50 (MCF7 breast): 165 nM
- TGI (MCF7 breast): 1360 nM
- GI50 (HT29 colon): 157 nM
- TGI (HT29 colon): 585 nM
- GI50 (HL-60(TB) leukemia): 127 nM
- TGI (HL-60(TB) leukemia): 309 nM
- GI50 (RPMI-8226 leukemia): 174 nM
- TGI (RPMI-8226 leukemia): 644 nM
- GI50 (SK-MEL-28 melanoma): 172 nM
- TGI (SK-MEL-28 melanoma): 669 nM
- GI50 (HCC-2998 colon): 139 nM
- TGI (HCC-2998 colon): 430 nM
- GI50 (SNB-75 CNS): 517 nM
- TGI (SNB-75 CNS): 1130 nM
- GI50 (SF-268 CNS): 793 nM
- TGI (SF-268 CNS): 2820 nM
- GI50 (OVCAR-8 ovarian): 527 nM
- TGI (OVCAR-8 ovarian): 3150 nM
- GI50 (OVCAR-3 ovarian): 148 nM
- TGI (OVCAR-3 ovarian): 478 nM
- GI50 (HOP-62 NSCLC): 159 nM
- TGI (HOP-62 NSCLC): 1050 nM
- GI50 (SK-OV-3 ovarian): 284 nM
- TGI (SK-OV-3 ovarian): 2220 nM
- GI50 (MDA-MB-435): 182 nM
- TGI (MDA-MB-435): 738 nM
- GI50 (NCI-H460 lung): 132 nM
- TGI (NCI-H460 lung): 336 nM
- GI50 (U251 CNS): 224 nM
- TGI (U251 CNS): 2260 nM
- GI50 (HCT-15 colon): 153 nM
- TGI (HCT-15 colon): 777 nM
- GI50 (NCI/ADR-RES ovarian): 1010 nM
- TGI (NCI/ADR-RES ovarian): 3760 nM
- GI50 (NCI-H23 lung): 376 nM
- TGI (NCI-H23 lung): 2230 nM
- GI50 (RXF 393 renal): 114 nM
- TGI (RXF 393 renal): 327 nM
- GI50 (SF-539 CNS): 206 nM
- TGI (SF-539 CNS): 1290 nM
- GI50 (T-47D breast): 340 nM
- TGI (T-47D breast): 2220 nM
- GI50 (UACC-257 melanoma): 534 nM
- TGI (UACC-257 melanoma): 2520 nM
- GI50 (OVCAR-5 ovarian): 840 nM
- TGI (OVCAR-5 ovarian): 2980 nM
